Results from publication PMC7320160, “In planta study of photosynthesis and photorespiration using NADPH and NADH/NAD^+ fluorescent protein sensors” (Nature Communications, 2020).

Target: T1, iNAP1
T1 construct: gene rex; 6xHis N-terminal, E. coli BL21(DE3) pLys
Assay: sensor fluorescence titration, excitation […] nm, emission […] nm
Assay type: binding
Conditions: 22 °C, in vitro, pseudocytosol medium pH 7.5, 0.5 μM sensor

Kd: 300 nM
Structure (SMILES): NC(=O)C1=CN([C@@H]2O[C@H](COP(=O)(O)OP(=O)(O)OC[C@H]3O[C@@H](n4cnc5c(N)ncnc54)[C@H](OP(=O)(O)O)[C@@H]3O)[C@@H](O)[C@H]2O)C=CC1 [NADPH]
